Series [1] concerns VSV-S (pseudotyped VSV carrying the S protein of Wuhan-Hu-1 SARS-CoV-2). Description: microbe, parasite or virus in culture. The series is classed as cell-based. The conditions noted are these: read-out: IC50 (concentration at which virus infection is reduced by 50%), VSV-S in A549-ACE2-TMPRSS2 cells.
The nature of series [2]: in vitro. To be noted: African green monkey.
The subject of series [3] is VSV-S (pseudotyped VSV carrying the S protein of Wuhan-Hu-1 SARS-CoV-2). As to the kind of experiment: microbe, parasite or virus in culture. The series is classed as cell-based.
Series [4] in a line: in vitro. To be noted: human.
The target in the next series is SARS-CoV-2 RBD (Severe acute respiratory syndrome coronavirus 2, UniProt P0DTC2). The series is classed as binding.
The mark [5] stands for this setting: Vesicular stomatitis virus, Vero C1008, read-out: IC50 (concentration at which virus infection is reduced by 50%), VSV-S in Vero E6 cells.
Where [6] appears, read: read-out: IC50 (concentration at which virus infection is reduced by 50%), VSV-S in Vero E6 cells.

Entries after “also recorded” stand apart in the source; their conditions may differ. Read-outs that look alike come from different tables or passages of the source.

For the molecule `O=C(CCOCC(COCCC(=O)NC(Cc1c(Sc2ccc([N+](=O)[O-])cc2)[nH]c2ccccc12)C(=O)O)(COCCC(=O)NC(Cc1c(Sc2ccc([N+](=O)[O-])cc2)[nH]c2ccccc12)C(=O)O)COCCC(=O)NC(Cc1c(Sc2ccc([N+](=O)[O-])cc2)[nH]c2ccccc12)C(=O)O)NC(Cc1c(Sc2ccc([N+](=O)[O-])cc2)[nH]c2ccccc12)C(=O)O` (centres unmarked) [Compound 1], the IC50 in series [1] (Vesicular stomatitis virus) worked out at 18.5 ± 3.5 µM; in series [3] (setting [5]) it was 21.4 ± 9.45 µM; in series [3] (setting [6]) it was 21.4 ± 9.5 µM. Moreover, the CC50 in the series “in vitro [2]” and in the series “in vitro [4]” was more than 100 µM each time. Moreover, the “primary HTS screening result (in words)” value in series [3] is “significant antiviral activity in the absence of cytotoxicity”.
The molecule `O=C(CCC(CCC(=O)NC(Cc1c(Sc2ccc([N+](=O)[O-])cc2)[nH]c2ccccc12)C(=O)O)(CCC(=O)NC(Cc1c(Sc2ccc([N+](=O)[O-])cc2)[nH]c2ccccc12)C(=O)O)[N+](=O)[O-])NC(Cc1c(Sc2ccc([N+](=O)[O-])cc2)[nH]c2ccccc12)C(=O)O` (centres unmarked) [Compound 3] gave a CC50 in the series “in vitro [2]” of more than 100 µM. The “primary HTS screening result (in words)” value in series [3] is reported as “effective”. Besides, the IC50 in series [3] (setting [5]) was 32.9 ± 4.48 µM; in series [3] (setting [6]) it was 32.9 ± 4.5 µM.
Take `NCC(=O)NC(CCC(=O)NC(Cc1c(Sc2ccccc2[N+](=O)[O-])[nH]c2ccccc12)C(=O)O)(CCC(=O)NC(Cc1c(Sc2ccccc2[N+](=O)[O-])[nH]c2ccccc12)C(=O)O)CCC(=O)NC(Cc1c(Sc2ccccc2[N+](=O)[O-])[nH]c2ccccc12)C(=O)O` (centres unmarked) [Compound 36]: the IC50 in series [3] (setting [5]) is more than 100 µM.
As to `NCC(=O)NC(CCC(=O)NC(Cc1c(Sc2cccc([N+](=O)[O-])c2)[nH]c2ccccc12)C(=O)O)(CCC(=O)NC(Cc1c(Sc2cccc([N+](=O)[O-])c2)[nH]c2ccccc12)C(=O)O)CCC(=O)NC(Cc1c(Sc2cccc([N+](=O)[O-])c2)[nH]c2ccccc12)C(=O)O` (centres unmarked) [Compound 37], the IC50 in series [1] (Vesicular stomatitis virus) was found to be 8.6 ± 4.7 µM; in series [3] (setting [5]), 37.1 ± 15.9 µM. The CC50 in the series “in vitro [2]” and in the series “in vitro [4]” was more than 100 µM each time.
Regarding `NCC(=O)NC(CCC(=O)NC(Cc1c(Sc2ccc(C(F)(F)F)cc2)[nH]c2ccccc12)C(=O)O)(CCC(=O)NC(Cc1c(Sc2ccc(C(F)(F)F)cc2)[nH]c2ccccc12)C(=O)O)CCC(=O)NC(Cc1c(Sc2ccc(C(F)(F)F)cc2)[nH]c2ccccc12)C(=O)O` (centres unmarked) [Compound 38], the values for the IC50 in series [1] (Vesicular stomatitis virus) and in series [3] (setting [5]) were 11.6 ± 4.8 µM and 27.6 ± 12.6 µM, respectively. In addition, the CC50 in “in vitro [2]” and in “in vitro [4]” was more than 100 µM each time. Further, the “effect on thermofluor fluorescence profile / thermal stability of RBD (in words)” value on SARS-CoV-2 RBD is “shift of the curve toward lower temperatures”.
On to `N#Cc1ccc(Sc2[nH]c3ccccc3c2CC(NC(=O)CCC(CCC(=O)NC(Cc2c(Sc3ccc(C#N)cc3)[nH]c3ccccc23)C(=O)O)(CCC(=O)NC(Cc2c(Sc3ccc(C#N)cc3)[nH]c3ccccc23)C(=O)O)NC(=O)CN)C(=O)O)cc1` (centres unmarked) [Compound 39], for which the values for the IC50 in series [1] (Vesicular stomatitis virus) and in series [3] (setting [5]) were 34.9 ± 8.7 µM and 33.6 ± 7.2 µM, respectively. The CC50 in the series “in vitro [2]” and in the series “in vitro [4]” was more than 100 µM in each case.
For `NCC(=O)NC(CCC(=O)NC(Cc1c(Sc2ccc(F)cc2)[nH]c2ccccc12)C(=O)O)(CCC(=O)NC(Cc1c(Sc2ccc(F)cc2)[nH]c2ccccc12)C(=O)O)CCC(=O)NC(Cc1c(Sc2ccc(F)cc2)[nH]c2ccccc12)C(=O)O` (centres unmarked) [Compound 40], the IC50 is 46.9 ± 17.5 µM in series [1] (Vesicular stomatitis virus) and 33 ± 1.3 µM in series [3] (setting [5]). Besides, the CC50 in “in vitro [2]” and in “in vitro [4]” was more than 100 µM in each case.
Turning to `CC(=O)c1ccc(Sc2[nH]c3ccccc3c2CC(NC(=O)CCC(CCC(=O)NC(Cc2c(Sc3ccc(C(C)=O)cc3)[nH]c3ccccc23)C(=O)O)(CCC(=O)NC(Cc2c(Sc3ccc(C(C)=O)cc3)[nH]c3ccccc23)C(=O)O)NC(=O)CN)C(=O)O)cc1` (centres unmarked) [Compound 41], the IC50 in series [1] (Vesicular stomatitis virus) was approximately 2 µM; in series [1], 2.3 ± 1.7 µM; in series [3] (setting [5]) it was approximately 2 µM; in series [3] (setting [6]), 3 ± 1.9 µM. The CC50 in “in vitro [2]” and in the series “in vitro [4]” was more than 100 µM in each case. Moreover, the “effect on thermofluor fluorescence profile / thermal stability of RBD (in words)” value on SARS-CoV-2 RBD is on record as “shift of the curve toward lower temperatures; also recorded: thermally destabilized the RBD”.
`NCC(=O)NC(CCC(=O)NC(Cc1c(-c2ccc([N+](=O)[O-])cc2)[nH]c2ccccc12)C(=O)O)(CCC(=O)NC(Cc1c(-c2ccc([N+](=O)[O-])cc2)[nH]c2ccccc12)C(=O)O)CCC(=O)NC(Cc1c(-c2ccc([N+](=O)[O-])cc2)[nH]c2ccccc12)C(=O)O` (centres unmarked) [Compound 46]: the “antiviral activity in the VSV-S assay (in words)” value in series [3] is “antiviral activity is also lost”. The IC50 in series [3] (setting [5]) is more than 50 µM.
For `NCC(=O)NC(CCC(=O)NC(Cc1c(C(=O)c2ccc([N+](=O)[O-])cc2)[nH]c2ccccc12)C(=O)O)(CCC(=O)NC(Cc1c(C(=O)c2ccc([N+](=O)[O-])cc2)[nH]c2ccccc12)C(=O)O)CCC(=O)NC(Cc1c(C(=O)c2ccc([N+](=O)[O-])cc2)[nH]c2ccccc12)C(=O)O` (centres unmarked) [Compound 50] the same measures were “antiviral activity is also lost” and more than 50 µM.
Consider `CCCCCC(=O)NCC(=O)NC(CCC(=O)NC(Cc1c(Sc2ccc([N+](=O)[O-])cc2)[nH]c2ccccc12)C(=O)O)(CCC(=O)NC(Cc1c(Sc2ccc([N+](=O)[O-])cc2)[nH]c2ccccc12)C(=O)O)CCC(=O)NC(Cc1c(Sc2ccc([N+](=O)[O-])cc2)[nH]c2ccccc12)C(=O)O` (centres unmarked) [Compound 56], for which the IC50 in series [1] (Vesicular stomatitis virus) was 8.3 ± 1.1 µM; in series [3] (setting [5]), 18.9 ± 6.8 µM. In addition, the CC50 in “in vitro [2]” and in the series “in vitro [4]” was more than 100 µM throughout.
`CCCCCCCC(=O)NCC(=O)NC(CCC(=O)NC(Cc1c(Sc2ccc([N+](=O)[O-])cc2)[nH]c2ccccc12)C(=O)O)(CCC(=O)NC(Cc1c(Sc2ccc([N+](=O)[O-])cc2)[nH]c2ccccc12)C(=O)O)CCC(=O)NC(Cc1c(Sc2ccc([N+](=O)[O-])cc2)[nH]c2ccccc12)C(=O)O` (centres unmarked) [Compound 57]: the IC50 in series [1] (Vesicular stomatitis virus) worked out at 11.1 ± 5 µM; in series [3] (setting [5]), 23.5 ± 3.8 µM. For the same molecule, the CC50 in the series “in vitro [2]” and in “in vitro [4]” was more than 100 µM throughout. Besides, the “effect on thermofluor fluorescence profile / thermal stability of RBD (in words)” value on SARS-CoV-2 RBD is listed as “shift of the curve toward lower temperatures”.
Take `CCCCCCCCCC(=O)NCC(=O)NC(CCC(=O)NC(Cc1c(Sc2ccc([N+](=O)[O-])cc2)[nH]c2ccccc12)C(=O)O)(CCC(=O)NC(Cc1c(Sc2ccc([N+](=O)[O-])cc2)[nH]c2ccccc12)C(=O)O)CCC(=O)NC(Cc1c(Sc2ccc([N+](=O)[O-])cc2)[nH]c2ccccc12)C(=O)O` (centres unmarked) [Compound 58]: the IC50 in series [1] (Vesicular stomatitis virus) was found to be 9.8 ± 4.3 µM; in series [3] (setting [5]), 21 ± 8.7 µM. Further, the CC50 in the series “in vitro [2]” and in “in vitro [4]” was more than 100 µM each time.
With `CCCCCCCCCCCC(=O)NCC(=O)NC(CCC(=O)NC(Cc1c(Sc2ccc([N+](=O)[O-])cc2)[nH]c2ccccc12)C(=O)O)(CCC(=O)NC(Cc1c(Sc2ccc([N+](=O)[O-])cc2)[nH]c2ccccc12)C(=O)O)CCC(=O)NC(Cc1c(Sc2ccc([N+](=O)[O-])cc2)[nH]c2ccccc12)C(=O)O` (centres unmarked) [Compound 59], the IC50 in series [1] (Vesicular stomatitis virus) came to 44.4 ± 23.4 µM; in series [3] (setting [5]), 30.3 ± 5.3 µM. For the same molecule, the CC50 in “in vitro [2]” and in the series “in vitro [4]” was more than 100 µM in each case.

For the origin of these results see PMC10424185, “C-2 Thiophenyl Tryptophan Trimers Inhibit Cellular Entry of SARS-CoV-2 through Interaction with the Viral Spike (S) Protein” (Journal of Medicinal Chemistry, 2023).
